Patent US12319684B2 (Sanford Burnham Prebys Medical Discovery Institute, priority 2014, dated 2025)
Read-outs that look alike come from different tables or passages of the source.

Target: T1, human apelin receptor (APJ, AGTRL-1, APLNR) (Homo sapiens, UniProt P35414)
T1 construct: host or cells: Chinese hamster ovary cells
T1 sequence (P35414 1-380): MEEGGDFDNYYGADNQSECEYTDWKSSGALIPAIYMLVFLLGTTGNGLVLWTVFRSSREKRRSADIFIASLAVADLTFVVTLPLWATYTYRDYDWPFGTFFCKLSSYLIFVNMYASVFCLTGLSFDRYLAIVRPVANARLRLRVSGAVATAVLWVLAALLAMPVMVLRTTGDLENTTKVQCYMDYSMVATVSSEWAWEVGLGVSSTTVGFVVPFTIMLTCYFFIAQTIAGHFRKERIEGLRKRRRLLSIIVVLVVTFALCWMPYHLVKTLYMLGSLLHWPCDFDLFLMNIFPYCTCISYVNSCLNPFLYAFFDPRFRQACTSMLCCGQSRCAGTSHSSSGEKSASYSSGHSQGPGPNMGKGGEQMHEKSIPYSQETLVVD
Test: APJ cAMP cell-based assay (forskolin-stimulated CHO cells, enzyme fragment complementation)
Conditions: for Emax: CHO, 0.5 h, read-out: APJ cAMP % resp (efficacy)
Method: The assays disclosed herein were performed using cell lines from DiscoveRx, Inc.
Biological activity was determined in a cell-based assay. This assay detects activation of the receptor by reporting on intracellular cyclic adenosine monophosphate (cAMP) level. Chinese hamster ovary cells engineered to express a stably integrated human apelin receptor (APJ, AGTRL-1, APLNR), were plated into the wells of a microtiter plate. Cells were stimulated with forskolin to increase intracellular cAMP. Immediately following, compounds were added at a range of final concentrations 0.0-100 μM, in DMSO (not to exceed a final DMSO concentration of >1% v/v), and allowed to incubate with the cells for 0.5 h. At the end of the incubation, cells were lysed to stop APJ signaling, and cAMP was quantified using a commercially available assay kit that applies enzyme fragment complementation technology and bioluminescence, in a competitive ELISA format.
Compound efficacy (% resp) is reported as a percentage of the maximal apelin-13 response at 1 nM (control).

[1] = CHO cells expressing human APJ, forskolin-stimulated, 0.5 h incubation, 50% of control (apelin-13, 1 nM) response, read-out: APJ cAMP EC50
[2] = percentage of the maximal apelin-13 response at 1 nM (control)

**Q.** How did the EC50 [1] turn out when `COc1ccccc1-n1c(SCc2ccc([N+](=O)[O-])cc2)nnc1-c1cccs1` [Example 72, 4-(2-Methoxy-phenyl)-3-(4-nitro-benzylsulfanyl)-5-thiophen-2-yl-4H-[1,2,4]triazole] was run?
**A.** The EC50 was 140 nM.

**Q.** And the Emax [2]?
**A.** The Emax was 106%.

**Q.** Which EC50 [1] does the source give for `COc1ccccc1-n1c(SCc2cc(=O)n3cc(Br)ccc3n2)nnc1-c1cccs1` [Example 46, 7-Bromo-2-[4-(2-methoxy-phenyl)-5-thiophen-2-yl-4H-[1,2,4]triazol-3-ylsulfanylmethyl]-pyrido[1,2-a]pyrimidin-4-one] here?
**A.** The EC50 was 7.8 nM.

**Q.** What about the Emax [2] of the same compound?
**A.** Its Emax is 117%.

**Q.** For `COc1ccccc1-n1c(SCc2cc(=O)n3cc(C)ccc3n2)nnc1-c1nccn1C` [Example 19, 2-[4-(2-Methoxy-phenyl)-5-(1-methyl-1H-imidazol-2-yl)-4H-[1,2,4]triazol-3-ylsulfanylmethyl]-7-methyl-pyrido[1,2-a]pyrimidin-4-one], which EC50 [1] is on record?
**A.** Its EC50 is greater than 10000 nM.

**Q.** And the Emax [2]?
**A.** Its Emax is 57%.

**Q.** Which results are given for `COc1ccccc1-n1c(SCc2ccc(Cl)c(Cl)c2)nnc1-c1cccs1` [Example 71, 3-(3,4-Dichloro-benzylsulfanyl)-4-(2-methoxy-phenyl)-5-thiophen-2-yl-4H-[1,2,4]triazole]?
**A.** EC50 [1]: 1220 nM; Emax [2]: 99%

**Q.** With `COc1ccccc1-n1c(SCc2csc(-c3ccc(C(F)(F)F)cc3)n2)nnc1-c1cccs1` [Example 32, 4-(2-Methoxy-phenyl)-3-thiophen-2-yl-5-[2-(4-trifluoromethyl-phenyl)-thiazol-4-ylmethylsulfanyl]-4H-[1,2,4]triazole] as the compound, how does the EC50 [1] read?
**A.** Its EC50 is 1460 nM.

**Q.** What about the Emax [2] of the same compound?
**A.** The Emax was 33%.

**Q.** `COc1ccccc1-n1c(SCc2nc(=O)c3cc(C(F)(F)F)ccc3[nH]2)nnc1-c1cccs1` [Example 64, 2-[4-(2-Methoxy-phenyl)-5-thiophen-2-yl-4H-[1,2,4]triazol-3-ylsulfanylmethyl]-6-trifluoromethyl-1H-quinazolin-4-one] was tested. Which EC50 [1] did it give?
**A.** Its EC50 is 365 nM.

**Q.** And the Emax [2]?
**A.** Its Emax is 92%.

**Q.** Which results are given for `Cc1ccc2nc(CSc3nnc(-c4cccs4)n3-c3ccc(Cl)cc3)cc(=O)n2c1` [Example 26, 2-[4-(4-Chloro-phenyl)-5-thiophen-2-yl-4H-[1,2,4]triazol-3-ylsulfanylmethyl]-7-methyl-pyrido[1,2-a]pyrimidin-4-one]?
**A.** EC50 [1]: > 10000 nM; Emax [2]: 86%

**Q.** `COc1ccccc1-n1c(SCc2cc(=O)n3cc(C)ccc3n2)nnc1-c1ccncc1` [Example 4, 2-[4-(2-Methoxy-phenyl)-5-pyridin-4-yl-4H-[1,2,4]triazol-3-ylsulfanylmethyl]-7-methyl-pyrido[1,2-a]pyrimidin-4-one] was tested. Which EC50 [1] did it give?
**A.** The EC50 was 3090 nM.

**Q.** What about the Emax [2] of the same compound?
**A.** The Emax was 80%.

**Q.** Which EC50 [1] does the source give for `COc1ccccc1-n1c(SCc2cc(=O)n3cc(C)ccc3n2)nnc1-c1cccn1C` [Example 18, 2-[4-(2-Methoxy-phenyl)-5-(1-methyl-1H-pyrrol-2-yl)-4H-[1,2,4]triazol-3-ylsulfanylmethyl]-7-methyl-pyrido[1,2-a]pyrimidin-4-one] here?
**A.** Its EC50 is 1700 nM.

**Q.** What about the Emax [2] of the same compound?
**A.** The Emax was 58%.

**Q.** Which results are given for `COc1ccccc1-n1c(SCc2cc(=O)n3cc(C)ccc3n2)nnc1-c1ccco1` [Example 2, 2-[5-Furan-2-yl-4-(2-methoxy-phenyl)-4H-[1,2,4]triazol-3-ylsulfanylmethyl]-7-methyl-pyrido[1,2-a]pyrimidin-4-one]?
**A.** EC50 [1]: 310 nM; Emax [2]: 154%

**Q.** With `COc1ccccc1-n1c(SCc2nc(=O)c3ccccc3[nH]2)nnc1-c1cccs1` [Example 52, 2-[4-(2-Methoxy-phenyl)-5-thiophen-2-yl-4H-[1,2,4]triazol-3-ylsulfanylmethyl]-1H-quinazolin-4-one] as the compound, how does the EC50 read?
**A.** Its EC50 is 240 nM.

**Q.** What about the Emax of the same compound?
**A.** Its Emax is 113%.

**Q.** How did the EC50 [1] turn out when `COc1ccccc1-n1c(SCc2nc(=O)c3cc(Br)ccc3[nH]2)nnc1-c1cccs1` [Example 61, 6-Bromo-2-[4-(2-methoxy-phenyl)-5-thiophen-2-yl-4H-[1,2,4]triazol-3-ylsulfanylmethyl]-1H-quinazolin-4-one] was run?
**A.** Its EC50 is 31.5 nM.

**Q.** What about the Emax [2] of the same compound?
**A.** The Emax was 80%.

**Q.** `COc1ccccc1-n1c(SCc2coc(-c3ccc(Br)cc3)n2)nnc1-c1cccs1` [Example 42, 3-[2-(4-Bromo-phenyl)-oxazol-4-ylmethylsulfanyl]-4-(2-methoxy-phenyl)-5-thiophen-2-yl-4H-[1,2,4]triazole] was tested. Which EC50 [1] did it give?
**A.** The EC50 was greater than 10000 nM.

**Q.** What about the Emax [2] of the same compound?
**A.** The Emax was 33%.

**Q.** With `COc1ccccc1-n1c(SCc2nc(=O)c3cc(OC(F)(F)F)ccc3[nH]2)nnc1-c1cccs1` [Example 69, 2-[4-(2-Methoxy-phenyl)-5-thiophen-2-yl-4H-[1,2,4]triazol-3-ylsulfanylmethyl]-6-trifluoromethoxy-1H-quinazolin-4-one] as the compound, how does the EC50 [1] read?
**A.** Its EC50 is 1370 nM.

**Q.** And the Emax?
**A.** The Emax was 59%.

**Q.** Which EC50 [1] does the source give for `COc1ccccc1-n1c(OCc2csc(-c3ccccc3)n2)nnc1-c1cccs1` [Example 84] here?
**A.** The EC50 was 680 nM.

**Q.** And the Emax [2]?
**A.** Its Emax is 109%.

**Q.** Which results are given for `COc1ccccc1-n1c(-c2cccs2)cnc1OCc1csc(-c2ccccc2)n1` [Example 80]?
**A.** EC50 [1]: > 10000 nM; Emax [2]: 31%

**Q.** Which EC50 [1] does the source give for `COc1ccccc1-n1c(SCc2cccc(C)c2)nnc1-c1cccs1` [Example 76, 4-(2-Methoxy-phenyl)-3-(3-methyl-benzylsulfanyl)-5-thiophen-2-yl-4H-[1,2,4]triazole] here?
**A.** The EC50 was 11300 nM.

**Q.** What about the Emax [2] of the same compound?
**A.** The Emax was 159%.

**Q.** With `COc1ccccc1-n1c(SCc2cc(=O)n3cc(C)ccc3n2)nnc1-c1cccs1` [Example 48, 2-[4-(2-Methoxy-phenyl)-5-thiophen-2-yl-4H-[1,2,4]triazol-3-ylsulfanylmethyl]-7-methyl-pyrido[1,2-a]pyrimidin-4-one] as the compound, how does the EC50 [1] read?
**A.** The EC50 was 28 nM.

**Q.** And the Emax [2]?
**A.** The Emax was 103%.

**Q.** With `COc1ccccc1-n1c(SCc2cc(=O)n3cc(C)ccc3n2)nnc1-c1ccoc1` [Example 16, 2-[5-Furan-3-yl-4-(2-methoxy-phenyl)-4H-[1,2,4]triazol-3-ylsulfanylmethyl]-7-methyl-pyrido[1,2-a]pyrimidin-4-one] as the compound, how does the EC50 [1] read?
**A.** The EC50 was 96.8 nM.

**Q.** And the Emax [2]?
**A.** The Emax was 84%.

**Q.** What does the source list for `Cc1ccc2nc(CSc3nnc(-c4cccs4)n3-c3ccc(OC(F)(F)F)cc3)cc(=O)n2c1` [Example 25, 7-Methyl-2-[5-thiophen-2-yl-4-(4-trifluoromethoxy-phenyl)-4H-[1,2,4]triazol-3-ylsulfanylmethyl]-pyrido[1,2-a]pyrimidin-4-one]?
**A.** EC50 [1]: > 10000 nM; Emax [2]: 52%

**Q.** `COc1ccccc1-n1c(SCc2cccc(F)c2)nnc1-c1cccs1` [Example 73, 3-(3-Fluoro-benzylsulfanyl)-4-(2-methoxy-phenyl)-5-thiophen-2-yl-4H-[1,2,4]triazole] was tested. Which EC50 [1] did it give?
**A.** The EC50 was 10200 nM.

**Q.** And the Emax [2]?
**A.** The Emax was 166%.

**Q.** What does the source list for `COc1ccccc1-n1c(SCc2nc(=O)c3c(F)cccc3[nH]2)nnc1-c1cccs1` [Example 56, 5-Fluoro-2-[4-(2-methoxy-phenyl)-5-thiophen-2-yl-4H-[1,2,4]triazol-3-ylsulfanylmethyl]-1H-quinazolin-4-one]?
**A.** EC50 [1]: 8620 nM; Emax [2]: 107%

**Q.** Which EC50 [1] does the source give for `COc1ccccc1-n1c(SCc2coc(-c3ccc(OC(F)(F)F)cc3)n2)nnc1-c1cccs1` [Example 43, 4-(2-Methoxy-phenyl)-3-thiophen-2-yl-5-[2-(4-trifluoromethoxy-phenyl)-oxazol-4-ylmethylsulfanyl]-4H-[1,2,4]triazole] here?
**A.** The EC50 was 3890 nM.

**Q.** And the Emax [2]?
**A.** The Emax was 102%.

**Q.** What does the source list for `COc1ccccc1-n1c(SCc2nc(=O)c3ccc(C(F)(F)F)cc3[nH]2)nnc1-c1cccs1` [Example 60, 2-[4-(2-Methoxy-phenyl)-5-thiophen-2-yl-4H-[1,2,4]triazol-3-ylsulfanylmethyl]-7-trifluoromethyl-1H-quinazolin-4-one]?
**A.** EC50 [1]: 569 nM; Emax [2]: 160%

**Q.** With `COc1ccc2[nH]c(CSc3nnc(-c4cccs4)n3-c3ccccc3OC)nc(=O)c2c1` [Example 65, 6-Methoxy-2-[4-(2-methoxy-phenyl)-5-thiophen-2-yl-4H-[1,2,4]triazol-3-ylsulfanylmethyl]-1H-quinazolin-4-one] as the compound, how does the EC50 [1] read?
**A.** The EC50 was 304 nM.

**Q.** And the Emax [2]?
**A.** Its Emax is 101%.

**Q.** Which EC50 [1] does the source give for `COc1ccccc1-n1c(SCc2nc3cc(C)ccc3c(=O)[nH]2)nnc1-c1cccs1` [Example 53, 2-(((4-(2-methoxyphenyl)-5-(thiophen-2-yl)-4H-1,2,4-triazol-3-yl)thio)methyl)-7-methylquinazolin-4(3H)-one] here?
**A.** Its EC50 is 1030 nM.

**Q.** And the Emax [2]?
**A.** Its Emax is 59%.

**Q.** `COc1ccccc1-n1c(SCc2cc(=O)n3cc(C)ccc3n2)nnc1-c1ccccc1` [Example 3, 2-[4-(2-Methoxy-phenyl)-5-phenyl-4H-[1,2,4]triazol-3-ylsulfanylmethyl]-7-methyl-pyrido[1,2-a]pyrimidin-4-one] was tested. Which EC50 [1] did it give?
**A.** Its EC50 is 6160 nM.

**Q.** And the Emax [2]?
**A.** Its Emax is 136%.

**Q.** Which EC50 [1] does the source give for `Cc1ccc2nc(CSc3nnc(-c4cccs4)n3-c3cccc(Cl)c3)cc(=O)n2c1` [Example 28, 2-[4-(3-Chloro-phenyl)-5-thiophen-2-yl-4H-[1,2,4]triazol-3-ylsulfanylmethyl]-7-methyl-pyrido[1,2-a]pyrimidin-4-one] here?
**A.** Its EC50 is greater than 10000 nM.

**Q.** And the Emax [2]?
**A.** The Emax was 91%.

**Q.** With `COc1ccccc1-n1c(NCc2coc(-c3ccc(C)cc3)n2)nnc1-c1cccs1` [Example 87, [4-(2-Methoxy-phenyl)-5-thiophen-2-yl-4H-[1,2,4]triazol-3-yl]-(2-p-tolyl-oxazol-4-ylmethyl)-amine] as the compound, how does the EC50 [1] read?
**A.** The EC50 was greater than 10000 nM.
